Experiments:
patients with FIRES = assay: Expanded access program, febrile infection related epilepsy syndrome (FIRES) patients; assay type: in vivo, human; parameters: Change from Baseline: unit not given here; details: total seizures
Procedure: Three patients with FIRES, with an age range of from 4 to 15 years, were treated with CBD under an expanded access program as described previously in Example 1.
Safety laboratory studies, physical/neurological exams, 24 hour video/EEG and seizure types and frequencies were assessed at baseline and one month after starting CBD.
A highly purified extract of CBD as an oral solution in sesame oil was used at a concentration of 25 mg/mL.
Treatment was initiated at a dose of 10 mg/kg/day given in two divided doses, increasing by 5 mg/kg/day every 3 days.
Following seizure improvement an average of 2 AEDs were weaned.

[1] = system: adult patients with generalized epilepsy; details: eight adult patients with generalized epilepsy; cited from earlier work
adult patients = details: 200 mg/day of pure CBD, four adult patients; cited from earlier work
[2] = system: institutionalized adult patients; details: 200 mg/day of pure CBD, twelve institutionalized adult patients, open label; cited from earlier work
mice = details: after administration of pro-convulsant drugs or an electric current; cited from earlier work

## C=C(C)[C@@H]1CCC(C)=C[C@H]1c1c(O)cc(CCCCC)cc1O [CBD, Cannabidiol]
Patients with FIRES; Patient 1, Wk 12
  Frequency (per month): 0.0 per month
  Responder (>=50% Reduction): Yes
  Responder (>=70% Reduction): Yes
  Responder (>=90% Reduction): Yes
  Seizure Free: Yes
Patients with FIRES; Patient 1, Wk 16
  % Change from Baseline: −100.0%
  Change from Baseline: −4.0
  Frequency (per month): 0.0 per month
  Responder (>=50% Reduction): Yes
  Responder (>=70% Reduction): Yes
  Responder (>=90% Reduction): Yes
  Seizure Free: Yes
Patients with FIRES; Patient 1, Wk 24
  % Change from Baseline: −92.0%
  Change from Baseline: −3.7
  Frequency (per month): 0.3 per month
  Responder (>=50% Reduction): Yes
  Responder (>=70% Reduction): Yes
  Responder (>=90% Reduction): Yes
  Seizure Free: No
Patients with FIRES; Patient 2, Wk 2
  % Change from Baseline: −88.6%
  Change from Baseline: −6.2
  Frequency (per month): 0.8 per month
  Responder (>=50% Reduction): Yes
  Responder (>=70% Reduction): Yes
  Responder (>=90% Reduction): No
  Seizure Free: No
Patients with FIRES; Patient 2, Wk 4
  % Change from Baseline: −57.1%
  Change from Baseline: −4.0
  Frequency (per month): 3.0 per month
  Responder (>=50% Reduction): Yes
  Responder (>=70% Reduction): No
  Responder (>=90% Reduction): No
  Seizure Free: No
Patients with FIRES; Patient 2, Wk 8
  % Change from Baseline: 42.9%
  Change from Baseline: 3.0
  Frequency (per month): 10.0 per month
  Responder (>=50% Reduction): No
  Responder (>=70% Reduction): No
  Responder (>=90% Reduction): No
  Seizure Free: No
Patients with FIRES; Patient 2, Wk 12
  % Change from Baseline: 14.3%
  Change from Baseline: 1.0
  Frequency (per month): 8.0 per month
  Responder (>=50% Reduction): No
  Responder (>=70% Reduction): No
  Responder (>=90% Reduction): No
  Seizure Free: No
Patients with FIRES; Patient 2, Wk 16
  % Change from Baseline: −42.9%
  Change from Baseline: −3.0
  Frequency (per month): 4.0 per month
  Responder (>=50% Reduction): No
  Responder (>=70% Reduction): No
  Responder (>=90% Reduction): No
  Seizure Free: No
Patients with FIRES; Patient 3, Wk 4
  % Change from Baseline: −99.2%
  Change from Baseline: −5552.8
  Frequency (per month): 47.2 per month
  Responder (>=50% Reduction): Yes
  Responder (>=70% Reduction): Yes
  Responder (>=90% Reduction): Yes
  Seizure Free: No
Patients with FIRES; Patient 3, Wk 8
  % Change from Baseline: −99.8%
  Change from Baseline: −5590.8
  Frequency (per month): 9.2 per month
  Responder (>=50% Reduction): Yes
  Responder (>=70% Reduction): Yes
  Responder (>=90% Reduction): Yes
  Seizure Free: No
Patients with FIRES; Patient 3, Wk 12
  % Change from Baseline: −97.5%
  Change from Baseline: −5458.4
  Frequency (per month): 141.6 per month
  Responder (>=50% Reduction): Yes
  Responder (>=70% Reduction): Yes
  Responder (>=90% Reduction): Yes
  Seizure Free: No
Patients with FIRES; Patient 3, Wk 24
  % Change from Baseline: −90.3%
  Change from Baseline: −5058.0
  Frequency (per month): 542.0 per month
  Responder (>=50% Reduction): Yes
  Responder (>=70% Reduction): Yes
  Responder (>=90% Reduction): Yes
  Seizure Free: No
[1]
  patients with a marked reduction of seizures: 4
Adult patients
  patients who became seizure free: two
[2]
  controlling seizures: ineffective
mice
  prevention of seizures: able to prevent seizures

Reference: US11766411B2, “Use of cannabinoids in the treatment of epilepsy” (GW Research Limited, priority 2014, dated 2023)
